Measured values: ChEMBL document CHEMBL1201862, “PubChem BioAssay data set” (2004)
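Cultured in 96-well plates, cells were exposed to test compound for 48 hours across five concentrations. GI50 marks 50% less growth.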 Activity calls are given as the source filed them. Rule as the data show it: active = GI50 up to about 1.1 µM and inactive = higher.

Assays:
Test in all cases: NCI-60 cell line screen, 48 h
UACC-62 = system: UACC-62
Hs-578T = system: Hs-578T
MDA-MB-231 = system: MDA-MB-231
ACHN = system: ACHN
LOX IMVI = system: LOX IMVI
T47D = system: T47D
U-251 = system: U-251
NCI/ADR-RES = system: NCI/ADR-RES
MDA-MB-435 = system: MDA-MB-435
UO-31 = system: UO-31
MCF7 = system: MCF7
A549 = system: A549
HCT-116 = system: HCT-116
M14 = system: M14
COLO 205 = system: COLO 205
RXF 393 = system: RXF 393
NCI-H522 = system: NCI-H522
NCI-H226 = system: NCI-H226
OVCAR-8 = system: OVCAR-8
MOLT-4 = system: MOLT-4

| SMILES | GI50 (UACC-62) | GI50 (Hs-578T) | GI50 (MDA-MB-231) | GI50 (ACHN) | GI50 (LOX IMVI) | GI50 (T47D) | GI50 (U-251) | GI50 (NCI/ADR-RES) | GI50 (MDA-MB-435) | GI50 (UO-31) | GI50 (MCF7) | GI50 (A549) | GI50 (HCT-116) | GI50 (M14) | GI50 (COLO 205) | GI50 (RXF 393) | GI50 (NCI-H522) | GI50 (NCI-H226) | GI50 (OVCAR-8) | GI50 (MOLT-4) |
| --- | --- | --- | --- | --- | --- | --- | --- | --- | --- | --- | --- | --- | --- | --- | --- | --- | --- | --- | --- | --- |
| [O-]c1c[n+](-c2ccccc2)no1 | > 100 µM (inactive) | > 100 µM (inactive) | > 100 µM (inactive) | > 100 µM (inactive) | > 100 µM (inactive) | > 100 µM (inactive) | > 100 µM (inactive) | > 100 µM (inactive) | > 100 µM (inactive) | > 100 µM (inactive) | > 100 µM (inactive) | > 100 µM (inactive) | > 100 µM (inactive) | > 100 µM (inactive) | > 100 µM (inactive) | > 100 µM (inactive) |  |  |  |  |
| COc1cc(Cn2c3c(c4c(C(=O)NCCN(C)C)c(O)ccc42)C(=O)c2ccccc2C3=O)cc(OC)c1 | 1.91 µM (inactive) | 1.79 µM (inactive) | 2.1 µM (inactive) | 1.48 µM (inactive) |  | 1.8 µM (inactive) | 1.64 µM (inactive) | 2.32 µM (inactive) | 1.75 µM (inactive) | 1.71 µM (inactive) | 2 µM (inactive) | 1.88 µM (inactive) | 1.76 µM (inactive) | 1.73 µM (inactive) | 1.81 µM (inactive) | 1.68 µM (inactive) | 1.71 µM (inactive) | 6.87 µM (inactive) | 1.91 µM (inactive) |  |
| Cc1cc(C)nc(SCC(=O)OC2CC(C)CCC2C(C)C)n1 (stereo not drawn) | 14.6 µM (inactive) | 33.4 µM (inactive) | 17.9 µM (inactive) | 18.7 µM (inactive) | 20 µM (inactive) | 14.8 µM (inactive) | 22.5 µM (inactive) | 17 µM (inactive) | 23.6 µM (inactive) | 18.7 µM (inactive) | 23.3 µM (inactive) | 22.6 µM (inactive) | 19.2 µM (inactive) | 16.7 µM (inactive) | 16.7 µM (inactive) | 16.8 µM (inactive) | 18.8 µM (inactive) |  | 38.3 µM (inactive) | 16.7 µM (inactive) |
| OCC1OC(OCC(O)C(O)C(O)C(/C=N/Nc2ccccc2)=N/Nc2ccccc2)C(O)C(O)C1O (stereo not drawn) |  | > 100 µM (inactive) | > 100 µM (inactive) | 51.9 µM (inactive) | 13.2 µM (inactive) | 17 µM (inactive) | > 100 µM (inactive) | > 100 µM (inactive) | > 100 µM (inactive) | 30.4 µM (inactive) | 63.1 µM (inactive) | > 100 µM (inactive) | > 100 µM (inactive) | > 100 µM (inactive) | 44.6 µM (inactive) |  |  |  | > 100 µM (inactive) | > 100 µM (inactive) |
| O=C(O)CSC(CC(=O)c1ccc(Cl)cc1)c1ccc(Cl)cc1 (stereo not drawn) | 39.2 µM (inactive) | 34.6 µM (inactive) | 42 µM (inactive) | 79.1 µM (inactive) | 17.3 µM (inactive) | 29.3 µM (inactive) | 29 µM (inactive) | 38.7 µM (inactive) | 22.1 µM (inactive) | 34.6 µM (inactive) | 22.2 µM (inactive) | 38.4 µM (inactive) | 5.77 µM (inactive) | 42.1 µM (inactive) | 49.8 µM (inactive) |  | 14.7 µM (inactive) |  | 22.3 µM (inactive) | 6.81 µM (inactive) |
| Nc1nc(Cl)cc(NCC2(CO)CC(CCc3ccccc3)C2)n1 (stereo not drawn) | > 58.6 µM (inactive) | > 59.4 µM (inactive) | > 81.1 µM (inactive) | > 29 µM (inactive) | 3.26 µM (inactive) | 0.542 µM (active) | > 100 µM (inactive) | 4.14 µM (inactive) | > 100 µM (inactive) | > 75.2 µM (inactive) | 9.16 µM (inactive) | 9.16 µM (inactive) |  | > 100 µM (inactive) | > 71.9 µM (inactive) | 24.1 µM (inactive) | 17.6 µM (inactive) | > 100 µM (inactive) | 21.8 µM (inactive) | 8.38 µM (inactive) |
| COc1ccc(C(c2ccccc2)N2C(=O)CCC2C(=O)O)cc1OC (stereo not drawn) | > 100 µM (inactive) | > 100 µM (inactive) | > 100 µM (inactive) | > 100 µM (inactive) | > 100 µM (inactive) | > 100 µM (inactive) | > 100 µM (inactive) | > 100 µM (inactive) | > 100 µM (inactive) | > 100 µM (inactive) | > 100 µM (inactive) | > 100 µM (inactive) | > 100 µM (inactive) | > 100 µM (inactive) | > 100 µM (inactive) |  | > 100 µM (inactive) | > 100 µM (inactive) | > 100 µM (inactive) | > 100 µM (inactive) |
| CCOc1cc(C2CC(c3ccc(NS(=O)(=O)c4cc([N+](=O)[O-])ccc4C)cc3)=NN2c2ccc([N+](=O)[O-])cc2[N+](=O)[O-])ccc1O (stereo not drawn) |  | 12.9 µM (inactive) | 6.3 µM (inactive) | 6.76 µM (inactive) | 16.6 µM (inactive) | 9.68 µM (inactive) | 9.48 µM (inactive) | 8.04 µM (inactive) | 11.6 µM (inactive) | 14.6 µM (inactive) | 7.46 µM (inactive) | 6.55 µM (inactive) | 8.65 µM (inactive) | 12.3 µM (inactive) | 17.7 µM (inactive) | 7.11 µM (inactive) | 10.4 µM (inactive) | 7.31 µM (inactive) | 5.22 µM (inactive) | 23.3 µM (inactive) |
| COC(=O)/C=C/N1CC1 | > 10 µM (inactive) | > 10 µM (inactive) | > 10 µM (inactive) | > 10 µM (inactive) |  | > 10 µM (inactive) | 5.41 µM (inactive) | > 10 µM (inactive) | > 10 µM (inactive) |  | > 10 µM (inactive) | > 10 µM (inactive) | > 10 µM (inactive) | > 10 µM (inactive) | 2.19 µM (inactive) |  | > 10 µM (inactive) | > 10 µM (inactive) | > 10 µM (inactive) | > 10 µM (inactive) |
| Cc1cc(S(N)(=O)=O)c(S/C(=N\Nc2ccc([N+](=O)[O-])cc2)c2ccc(Cl)cc2)cc1Cl | 4.57 µM (inactive) | 4.88 µM (inactive) | 2.94 µM (inactive) | 2.96 µM (inactive) | 2.1 µM (inactive) | 3.07 µM (inactive) | 2.25 µM (inactive) | 2.64 µM (inactive) | 2.27 µM (inactive) | 4.42 µM (inactive) | 2.01 µM (inactive) | 2.55 µM (inactive) | 3.15 µM (inactive) | 4.09 µM (inactive) | 7.87 µM (inactive) | 1.75 µM (inactive) | 3.21 µM (inactive) | 2.22 µM (inactive) |  | 4.1 µM (inactive) |
| Cc1nc2ccc(Cl)cc2c2c1CCN2c1ccccc1 | 10.3 µM (inactive) | 21 µM (inactive) | 2.3 µM (inactive) | 16.9 µM (inactive) | 10.3 µM (inactive) | 14.5 µM (inactive) | 16.4 µM (inactive) | 11.7 µM (inactive) | 7.62 µM (inactive) | 8.89 µM (inactive) | 15.1 µM (inactive) | 15 µM (inactive) | 3.61 µM (inactive) |  | 2.76 µM (inactive) | 3.47 µM (inactive) | 11.7 µM (inactive) | 7.89 µM (inactive) | 15 µM (inactive) | 7.03 µM (inactive) |
| Cc1ccc(C2SC(=N)Nc3c2c(C)nn3C(=O)c2ccncc2)cc1 (stereo not drawn) | > 10 µM (inactive) | > 10 µM (inactive) | > 10 µM (inactive) | > 10 µM (inactive) | > 10 µM (inactive) | > 10 µM (inactive) | > 10 µM (inactive) | > 10 µM (inactive) | > 10 µM (inactive) |  | > 10 µM (inactive) | > 10 µM (inactive) | > 10 µM (inactive) | > 10 µM (inactive) | > 10 µM (inactive) | > 10 µM (inactive) | > 10 µM (inactive) | > 10 µM (inactive) | > 10 µM (inactive) | > 10 µM (inactive) |
| Fc1ccc2c3c([nH]c2c1)CCN(Cc1ccccc1)C3 | 18.2 µM (inactive) | 12 µM (inactive) | 24.3 µM (inactive) | 22.8 µM (inactive) | 16.9 µM (inactive) | 14.7 µM (inactive) | 19.7 µM (inactive) | 28.1 µM (inactive) | 17.5 µM (inactive) | 12.2 µM (inactive) | 16.7 µM (inactive) | 22.6 µM (inactive) | 18.6 µM (inactive) | 17.3 µM (inactive) | 20.5 µM (inactive) | 16 µM (inactive) |  | 19 µM (inactive) | 19.7 µM (inactive) | 17.3 µM (inactive) |
| CC1=NN(c2cccc(Cl)c2)C(=N/c2nc3ccccc3s2)/C1=C\c1ccccc1O |  | 22 µM (inactive) | 21 µM (inactive) | 25.6 µM (inactive) | 19.9 µM (inactive) | 36.4 µM (inactive) | 23.8 µM (inactive) | 24 µM (inactive) | 33.6 µM (inactive) | 34 µM (inactive) | 29.3 µM (inactive) |  | 26.7 µM (inactive) | 38 µM (inactive) |  | 38.1 µM (inactive) | 20 µM (inactive) | 22.2 µM (inactive) | 27.4 µM (inactive) | 34.2 µM (inactive) |
| O=C1c2cccnc2S(=O)(=O)N1c1ccc([N+](=O)[O-])cc1 | > 100 µM (inactive) | 64 µM (inactive) | > 100 µM (inactive) | > 100 µM (inactive) | > 100 µM (inactive) | > 100 µM (inactive) | > 100 µM (inactive) | > 100 µM (inactive) | > 100 µM (inactive) | > 100 µM (inactive) | > 100 µM (inactive) | > 100 µM (inactive) | > 100 µM (inactive) | > 100 µM (inactive) | > 100 µM (inactive) |  | 24.9 µM (inactive) | > 100 µM (inactive) | > 100 µM (inactive) | > 100 µM (inactive) |
